Data taken from patent US12286442B2, “Methods and materials for increasing transcription factor eb polypeptide levels” (University of Pittsburgh—Of the Commonwealth System of …, priority 2019, dated 2025).

The molecules below were run on TFEB (assay: High content screen measuring TFEB nuclear accumulation (TFEB nuclear/cytosol ratio) in BEAS-2B cells stably expressing TFEB-EGFP). Conditions: 18 hours incubation.
Type: cell-based, human
Outline: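 BEAS-2B cells stably expressing TFEB-EGFP (~2300–2500 per well) pre-incubated 8 hours, then exposed to serially diluted compounds (DMEM low glucose, 2% FBS) for 18 hours, PFA-fixed and DAPI-stained. Imaged nuclear (DAPI mask) vs cytosolic (expanded mask) TFEB-GFP; activity = minimal concentration raising nuclear/cytosol ratio by 25%.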
In the case of `Cc1nc2ccc(Nc3nc(-c4ccncc4)nc4ccncc34)cc2s1` [Compound 118], the “efficacy (minimal compound concentration needed to increase TFEB nuclear/cytosol ratio by 25%)” value was “++ (“++” equals between ≤25 μM and >1 μM)”.
`Cn1c(=O)c2ccccc2n(CC(=O)Nc2ccc(F)cc2)c1=O` [Compound 225] was tested, and the “efficacy (minimal compound concentration needed to increase TFEB nuclear/cytosol ratio by 25%)” value was “+ (“+” equals >25 μM)”.
In the case of `c1ccc2c(Nc3ccc4[nH]c5c(c4c3)CCCC5)nc(-c3ccncc3)nc2c1` [Compound 73], the “efficacy (minimal compound concentration needed to increase TFEB nuclear/cytosol ratio by 25%)” value was “+++ (“+++” equals ≤1 μM)”.
For `Fc1cccc(Nc2nc(-c3ccncc3)nc3ccncc23)c1` [Compound 194], the “efficacy (minimal compound concentration needed to increase TFEB nuclear/cytosol ratio by 25%)” value was “+++ (“+++” equals ≤1 μM)”.
In the case of `Cc1cccc(Nc2nc(-c3ccncc3)nc3ccccc23)c1` [Compound 185], the “efficacy (minimal compound concentration needed to increase TFEB nuclear/cytosol ratio by 25%)” value was “+++ (“+++” equals ≤1 μM)”.
For `CC(C)(C)c1cc2cc(Nc3nc(-c4ccncc4)nc4ncccc34)ccc2[nH]1` [Compound 134], the “efficacy (minimal compound concentration needed to increase TFEB nuclear/cytosol ratio by 25%)” value was “+++ (“+++” equals ≤1 μM)”.
With `Fc1cc(Nc2nc(-c3ccncc3)nc3ncccc23)cc2cc[nH]c12` [Compound 157] the “efficacy (minimal compound concentration needed to increase TFEB nuclear/cytosol ratio by 25%)” value was “+++ (“+++” equals ≤1 μM)”.
For `COc1ccc2c(Nc3cc(F)c4[nH]ccc4c3)nc(-c3ccncc3)nc2c1` [Compound 370], the “efficacy (minimal compound concentration needed to increase TFEB nuclear/cytosol ratio by 25%)” value was “+++ (“+++” equals ≤1 μM)”.
`c1cc(-c2cc3cnccc3c(Nc3ccc4nc(C5CC5)sc4c3)n2)ccn1` [Compound 398] was tested, and the “efficacy (minimal compound concentration needed to increase TFEB nuclear/cytosol ratio by 25%)” value was “+++ (“+++” equals ≤1 μM)”.
For `c1ccc2c(Nc3ccc4nccnc4c3)nc(-c3ccncc3)nc2c1` [Compound 103], the “efficacy (minimal compound concentration needed to increase TFEB nuclear/cytosol ratio by 25%)” value was “+++ (“+++” equals ≤1 μM)”.
`CCCCNc1nc(-c2ccncc2)nc2ccccc12` [Compound 164] was tested, and the “efficacy (minimal compound concentration needed to increase TFEB nuclear/cytosol ratio by 25%)” value was “+ (“+” equals >25 μM)”.
`COc1cccc2nc(-c3ccncc3)nc(Nc3ccc4[nH]ccc4c3)c12` [Compound 109] was tested, and the “efficacy (minimal compound concentration needed to increase TFEB nuclear/cytosol ratio by 25%)” value was “+++ (“+++” equals ≤1 μM)”.

Each molecule was assayed on BEAS-2B cells (assay: Toxicity: compound concentration needed to induce greater than 50 percent of cell loss). Conditions: 18 hours incubation.
Type: cell-based, human
Outline: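 BEAS-2B cells stably expressing TFEB-EGFP treated with serial compound dilutions for 18 h, then PFA-fixed, DAPI-stained and imaged. Toxicity scored as the concentration causing >50% cell loss, binned as ≥25 μM, <25 and >1 μM, or ≤1 μM ("+++").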
`Cc1nc2ccc(Nc3nc(-c4ccncc4)nc4ccncc34)cc2s1` [Compound 118] was tested, and the “toxicity (compound concentration needed to induce greater than 50 percent of cell loss)” value was “+ (cell loss of greater than 50 percent at a concentration that equals or is greater than 25 μM was represented as)”.
For `Cn1c(=O)c2ccccc2n(CC(=O)Nc2ccc(F)cc2)c1=O` [Compound 225], the “toxicity (compound concentration needed to induce greater than 50 percent of cell loss)” value was “+ (cell loss of greater than 50 percent at a concentration that equals or is greater than 25 μM was represented as)”.
With `c1ccc2c(Nc3ccc4[nH]c5c(c4c3)CCCC5)nc(-c3ccncc3)nc2c1` [Compound 73] the “toxicity (compound concentration needed to induce greater than 50 percent of cell loss)” value was “+++ (cell loss of greater than 50 percent at a concentration that equals or is less than 1 μM was represented as “+++.”)”.
`Fc1cccc(Nc2nc(-c3ccncc3)nc3ccncc23)c1` [Compound 194] was tested, and the “toxicity (compound concentration needed to induce greater than 50 percent of cell loss)” value was “+ (cell loss of greater than 50 percent at a concentration that equals or is greater than 25 μM was represented as)”.
For `Cc1cccc(Nc2nc(-c3ccncc3)nc3ccccc23)c1` [Compound 185], the “toxicity (compound concentration needed to induce greater than 50 percent of cell loss)” value was “+ (cell loss of greater than 50 percent at a concentration that equals or is greater than 25 μM was represented as)”.
`CC(C)(C)c1cc2cc(Nc3nc(-c4ccncc4)nc4ncccc34)ccc2[nH]1` [Compound 134] was tested, and the “toxicity (compound concentration needed to induce greater than 50 percent of cell loss)” value was “+ (cell loss of greater than 50 percent at a concentration that equals or is greater than 25 μM was represented as)”.
`Fc1cc(Nc2nc(-c3ccncc3)nc3ncccc23)cc2cc[nH]c12` [Compound 157] was tested, and the “toxicity (compound concentration needed to induce greater than 50 percent of cell loss)” value was “++ (cell loss of greater than 50 percent at a concentration less than 25 μM and greater than 1 μM was represented as)”.
With `COc1ccc2c(Nc3cc(F)c4[nH]ccc4c3)nc(-c3ccncc3)nc2c1` [Compound 370] the “toxicity (compound concentration needed to induce greater than 50 percent of cell loss)” value was “+ (cell loss of greater than 50 percent at a concentration that equals or is greater than 25 μM was represented as)”.
In the case of `c1cc(-c2cc3cnccc3c(Nc3ccc4nc(C5CC5)sc4c3)n2)ccn1` [Compound 398], the “toxicity (compound concentration needed to induce greater than 50 percent of cell loss)” value was “+ (cell loss of greater than 50 percent at a concentration that equals or is greater than 25 μM was represented as)”.
With `c1ccc2c(Nc3ccc4nccnc4c3)nc(-c3ccncc3)nc2c1` [Compound 103] the “toxicity (compound concentration needed to induce greater than 50 percent of cell loss)” value was “+ (cell loss of greater than 50 percent at a concentration that equals or is greater than 25 μM was represented as)”.
With `CCCCNc1nc(-c2ccncc2)nc2ccccc12` [Compound 164] the “toxicity (compound concentration needed to induce greater than 50 percent of cell loss)” value was “+ (cell loss of greater than 50 percent at a concentration that equals or is greater than 25 μM was represented as)”.
In the case of `COc1cccc2nc(-c3ccncc3)nc(Nc3ccc4[nH]ccc4c3)c12` [Compound 109], the “toxicity (compound concentration needed to induce greater than 50 percent of cell loss)” value was “+ (cell loss of greater than 50 percent at a concentration that equals or is greater than 25 μM was represented as)”.
